Experimental data reported in US5081121A, “4(1H)-quinolone derivatives” (priority 1988, dated 1992).

Columns and labels:
left atrial muscle = experiment: Test Method 1: enhancement of contracting force of left atrial muscle extirpated from a guinea pig (electrically stimulated at 1 Hz); type: cell-based; details: Cavia porcellus, Krebs-Henseleit solution 32° C.; for EC20: read-out: EC20 (molar concentration for enhancing the left atrial muscle contracting force to the level of 20%); for EC50: read-out: EC50 (molar concentration for enhancing the left atrial muscle contracting force to the level of 50%); for EC100: read-out: EC100 (molar concentration for enhancing the left atrial muscle contracting force to the level of 100%)
Protocol: (§1) The drug according to the present invention was evaluated with reference to the physiological activities by means of a method using an atrial muscle extirpated from a guinea pig.
(§2) Male guinea pigs having a body weight of 300-500 g were made swooned by striking his head and were bleeded to death. The heart was extirpated and the right and left atrial muscles were cut off. The tops of each atrial muscle were fixed with cerrefines. The muscle was suspended into an organ-bath in which a Krebs-Henseleit solution (at 32° C.) was filled, and a 95% O2 -5% CO2 gas was flown through the bath. The left atrial muscle was stimulated electrically at a frequency of 1 Hz to stabilize the contracting force of the left atrial muscle. Then, the compounds according to the present invention represented by the general formulae were added to the organ-bath. As for the right atrial muscle, after the pulsation was stabilized, the compounds according to the present invention were added in the organ-bath in the same manner as described above.
(§3) The compounds according to the present invention represented by the aforementioned general formulae enhanced the left atrial muscle contracting force dependent on their concentrations. The drug concentrations for enhancing the left atrial muscle contracting force to the levels of 20%, 50% and 100%, respectively are listed in Table 2. EC20, EC50 and EC100 indicate the molar concentration for enhancing the left atrial muscle contracting force to the levels of 20%, 50% and 100%, respectively. The enhancing rates of the pulsation of the right atrial muscle are also listed within parentheses. The minus values in parentheses indicate that the pulsation of the right atrial muscle is decreased.
(§4) As a control drug, theophylline ([…].

right atrial muscle = experiment: Test Method 1: enhancing rate of the pulsation of the right atrial muscle extirpated from a guinea pig; type: cell-based; details: minus values: pulsation is decreased
Protocol: as §1, §2, §3, §4

heart muscle = experiment: Test Method 2: effect on heart muscle contracting force in an anesthetized dog (LV-dP/dtmax); type: in vivo; details: anesthetized Beagle dogs, 1 mg/kg through a cannula inserted into vein; increasing rate, value at initiation set as 100%
Protocol: The compounds according to the present invention was evaluated with reference to the effect on heart muscle contracting force by means of a method using an anesthetized dog.
Beagle dogs having a body weight of 8-11 kg were used for the experiment. They were anesthetized by intraperitoneal administration of a sodium salt of pentobarbital (35 mg/kg) and, if necessary, of additional small amount of the sodium salt of pentobarbital. Anesthesia was maintained by administering the sodium salt of pentobarbital in a dose of 5 mg/kg/hour through a cannula inserted within a vein. Breathing was performed through a cannula inserted within a trachea with a respirator. The maximum accelerations of contracting the […] (LV-dp/dtmax) were measured with a pressure transducer inserted into the left ventricle. Compounds tested was administered in a dose of 1 mg/kg through a cannula inserted into the other vein. The parameters were expressed as the increasing rate (Δ%) after dosing of the drug with the value at the initiation when the drug was administered being set as 100%.

EC50 (left atrial muscle)	enhancing rate of the pulsation of the right atrial muscle (in parentheses under EC50) (right atrial muscle)	Compound	EC20 (left atrial muscle)	EC100 (left atrial muscle)	enhancing rate of the pulsation of the right atrial muscle (in parentheses under EC20) (right atrial muscle)	enhancing rate of the pulsation of the right atrial muscle (in parentheses under EC100) (right atrial muscle)	ΔLV-dP/dtmax (%) (heart muscle)
58.9 µM	1.8%	COc1cc(C)c2[nH]ccc(=O)c2c1 [Compound 20, 6-methoxy-8-methyl-4(1H)-quinolone]	12.4 µM	299 µM	0.2%	5.6%	41.7%
47.3 µM	13.5%	CCOc1cc2c(cc1OC)c(=O)ccn2CC [Compound 58, 7-ethoxy-1-ethyl-6-methoxy-4(1H)-quinolone]	8.13 µM	–	3.0%	–	–
68.4 µM	-2.7%	CCn1ccc(=O)c2cc(C)ccc21 [Compound 59, 1-ethyl-6-methyl-4(1H)-quinolone]	12.3 µM	279 µM	-2.0%	-3.0%	–
30 µM	–	CCOc1cc2[nH]ccc(=O)c2cc1OC [Compound 62, 7-ethoxy-6-methoxy-4(1H)-quinolone]	4.52 µM	75 µM	–	–	60.0%
75 µM	-25.0%	CCOC(=O)c1cn(CC)c2c(OCC)cc(OC)cc2c1=O [Compound 78, 8-ethoxy-3-ethoxycarbonyl-1-ethyl-6-methoxy-4(1H)-quinolone]	8.41 µM	–	-6.2%	–	–
57.5 µM	-15.0%	CCOC(=O)c1cn(CC)c2c(C)c(C)ccc2c1=O [Compound 81, 7,8-dimethyl-3-ethoxycarbonyl-1-ethyl-4(1H)-quinolone]	35.5 µM	–	-10.5%	–	–
57.5 µM	-6.5%	CCOC(=O)c1c[nH]c2c(C)cc(N(CC)CC)cc2c1=O [Compound 84, 6-diethylamino-3-ethoxycarbonyl-8-methyl-4(1H)-quinolone]	35.9 µM	126 µM	-3.0%	-11.5%	–
125 µM	8.5%	CCOc1cc2c(=O)c(C(=O)O)cn(CC)c2cc1OC [Compound 86, 3-carboxyl-6-ethoxy-1-ethyl-7-methoxy-4(1H)-quinolone]	30 µM	–	1.5%	–	–
119 µM	16.0%	COc1ccc(-c2ccccc2)c2c(=O)c(C(=O)O)c[nH]c12 [Compound 91, 3-carboxyl-8-methoxy-5-phenyl-4(1H)-quinolone]	13.3 µM	750 µM	2.3%	–	–
37.6 µM	6.0%	CCOc1cc2c(cc1OC)c(=O)c(C(=O)O)cn2C [Compound 92, 3-carboxyl-7-ethoxy-6-methoxy-1-methyl-4(1H)-quinolone]	4.73 µM	–	1.0%	–	–
50.7 µM	-3.0%	CCn1c(-c2cccs2)cc(=O)c2ccccc21 [Compound 97, 1-ethyl-2-(2-thienyl)-4(1H)-quinolone]	4.52 µM	–	-1.0%	–	–
36.7 µM	–	CCOc1cc2[nH]c(C3CC3)cc(=O)c2cc1OC [Compound 98, 2-cyclopropyl-7-ethoxy-6-methoxy-4(1H)-quinolone]	5.96 µM	–	–	–	57.1%
18.8 µM	3.5%	O=c1cc(-c2cccs2)[nH]c2ccccc12 [Compound 100, 2-(2-thienyl)-4(1H)-quinolone]	5.43 µM	–	1.8%	–	–
19.5 µM	-2.8%	CCOc1cc2c(cc1OC)c(=O)cc(-c1ccco1)n2CC [Compound 101, 7-ethoxy-1-ethyl-2-(2-furyl)-6-methoxy-4(1H)-quinolone]	1.68 µM	89.1 µM	-1.0%	0.0%	–
40.3 µM	-5.2%	CCOc1cc2c(cc1OC)c(=O)cc(-c1cccs1)n2CC [Compound 102, 7-ethoxy-1-ethyl-6-methoxy-2-(2-thienyl)-4(1H)-quinolone]	2.51 µM	–	-0.2%	–	–
34.3 µM	0.5%	C=CCn1c(C2CC2)cc(=O)c2cc(OC)c(OCC)cc21 [Compound 103, 1-allyl-2-cyclopropyl-7-ethoxy-6-methoxy-4(1H)-quinolone]	3 µM	162 µM	-2.0%	1.2%	–
51.9 µM	-0.5%	COc1ccc(Cn2c(C3CC3)cc(=O)c3cc(OC)c(OC)cc32)cc1 [Compound 104, 2-cyclopropyl-6,7-dimethoxy-1-(4-methoxybenzyl)-4(1H)-quinolone]	11.5 µM	–	-3.5%	–	–
100 µM	-19.5%	COc1cccc2c(=O)c(C(=O)N3CCN(Cc4ccc5c(c4)OCO5)CC3)cn(C)c12 [Compound 107, 8-methoxy-1-methyl-3-{1-[4-(3,4-methylenedioxybenzyl)-piperazinyl]carbonyl}-4(1H)-quinolone]	16.2 µM	–	-6.6%	–	–
97.7 µM	-27.0%	CCn1ccc(=O)c2cc(/C=C/c3cc(OC)ccc3OC)ccc21 [Compound 111, 6-[2-trans-(2,5-dimethoxyphenyl)vinyl]-1-ethyl-4(1H)-quinolone]	18.2 µM	–	-9.8%	–	–
53.1 µM	-4.0%	CCOc1cc2c(cc1OC)c(=O)cc(-c1cccnc1)n2CC [Compound 114, 7-ethoxy-1-ethyl-6-methoxy-2-(3-pyridyl)-4(1H)-quinolone]	6.46 µM	1000 µM	-1.8%	-1.3%	–
60.3 µM	–	C=CCn1c(-c2cccs2)cc(=O)c2cc(OC)c(OCC)cc21 [Compound 116, 1-allyl-7-ethoxy-6-methoxy-2-(2-thienyl)-4(1H)-quinolone]	15.3 µM	–	-10.0%	–	–

Compound	EC50 (left atrial muscle)	enhancing rate of the pulsation of the right atrial muscle (in parentheses under EC50) (right atrial muscle)	EC20 (left atrial muscle)	EC100 (left atrial muscle)	enhancing rate of the pulsation of the right atrial muscle (in parentheses under EC20) (right atrial muscle)	enhancing rate of the pulsation of the right atrial muscle (in parentheses under EC100) (right atrial muscle)	ΔLV-dP/dtmax (%) (heart muscle)
CCCCOc1cc2[nH]ccc(=O)c2cc1OC [Compound 52, 7-n-butoxy-6-methoxy-4(1H)-quinolone]	115 µM	-1.2%	37.6 µM	422 µM	-1.0%	-20.0%	–
CCCCOc1cc2c(cc1OC)c(=O)cc(-c1ccco1)n2CC [Compound 118, 7-n-butoxy-1-ethyl-2-(2-furyl)-6-methoxy-4(1H)-quinolone]	49 µM	-21.2%	10 µM	–	-5.0%	–	–
